What was measured:
[1] = test system: normal human fibroblast cells; test: Cell cycle progression in normal cells; assay type: cell-based
MCF-7 cells = test: Sulforhodamine B (SRB) cell proliferation assay; assay type: cell-based; settings: Homo sapiens, MCF7, MCF-7, 72 hours drug treatment
Experimental: (§1) Sulforhodamine B (SRB) assay: The cell proliferation assay was performed in 96-well plates as described previously. Adherent cells (MCF-7 and MDA-MB-231) were seeded in 96-well plates at a density of 5×10^3 cells per well. They were treated with increasing concentrations of the halogenated analogs the next day while in log-phase growth. After 72 hours of drug treatment, cells were fixed with 50% trichloroacetic acid and stained with 0.4% sulforhodamine B dissolved in 1% acetic acid. After 30 minutes, cells were then washed with 1% acetic acid to remove the unbound dye. The protein-bound dye was extracted with 10 mM Tris base to determine the optical density at 564-nm wavelength.
(§2) Suspension cells (CEM) were seeded into 96-well plates at a density of 5×10^3 cells per well and were treated with increasing concentrations of all halogenated analogs for 72 hours. Measurement of cell proliferation was performed colorimetrically by 3-(4,5-dimethylthiazol-2-yl)-5-(3-carboxymethoxyphenyl)-2-(4-sulphophenyl)-2H-tetrazolium, inner salt (MTS) assay, using the CellTiter96 AQueous One Solution Reagent (Promega, Madison, Wis.). Cells were exposed to MTS for 3 hours and absorbance was measured using a microplate reader (Molecular Devices, Sunnyvale, Calif.) at an optical density (OD) of 490 nm. […]

MDA-MB-231 cells [2] = test: Sulforhodamine B (SRB) cell proliferation assay; assay type: cell-based; settings: Homo sapiens, MDA-MB-231, 72 hours drug treatment
Experimental: as §1, §2

caspase-3 = test: Apoptotic mechanism in cancer cells; assay type: cell-based
MDA-MB-231 cells [3] = test: DAPI staining, cell morphology by fluorescence microscopy; assay type: cell-based, human; settings: 25 μM, 72 hours
Experimental: FIG. 2 is a series of photographs showing the effect of 9-chloro-nos on the morphology of cancer cells. Morphologic criteria for apoptotic cell death include, for example, chromatin condensation with aggregation along the nuclear envelope and plasma membrane blebbing followed by separation into small, apoptotic bodies. Panels show morphological evaluation of nuclei stained with DAPI from control cells (upper panels) and cells treated with 25 μM concentration of 9-Cl-nos for 72 hours (lower panels) using fluorescence microscopy. […] (Scale bar=15 μm).
Cell morphology was evaluated by fluorescence microscopy following DAPI staining (Vectashield, Vector Labs, Inc., Burlingame, Calif.). MDA-MB-231 cells were grown on poly-L-lysine coated coverslips in 6-well plates and were treated with the halogenated analogs at 25 μM for 72 hours. After incubation, coverslips were fixed in cold methanol and washed with PBS, stained with DAPI, and mounted on slides. Images were captured using a BX60 microscope (Olympus, Tokyo, Japan) with an 8-bit camera (Dage-MTI, Michigan City, Ind.) and IP Lab software (Scanalytics, Fairfax, Va.). Apoptotic cells were identified by features characteristic of apoptosis (e.g. nuclear condensation, formation of membrane blebs and apoptotic bodies).

tubulin = target: T1, tubulin; test: Tubulin binding assay (fluorescence titration / quenching); design: species or system mammalian; settings: 2 μM tubulin, 45 min at 37° C., pH 6.8; mean±SD, four experiments; read-out: dissociation constant (Kd) for binding to tubulin
T1 construct: other: 2 μM tubulin, 45 min at 37° C., pH 6.8; mean±SD, four experim
Experimental: Cell culture reagents were obtained from Mediatech, Cellgro. CEM, a human lymphoblastoid line was provided by Dr. William T. Beck (Cancer Center, University of Illinois at Chicago). MCF-7 cells were maintained in Dulbecco's Modification of Eagle's Medium 1× (DMEM) with 4.5 g/L glucose and L-glutamine (Mediatech, Cellgro) supplemented with 10% fetal bovine serum (Invitrogen, Carlsbad, Calif.) and 1% penicillin/streptomycin (Mediatech, Cellgro). MDA-MB-231 and CEM cells were grown in RPMI-1640 medium supplemented with 10% fetal bovine serum, and 1% penicillin/streptomycin. […]
Fluorescence titration for determining the tubulin binding parameters was performed as described previously. […] The relative intrinsic fluorescence intensity of tubulin was then monitored in a JASCO FP-6500 spectrofluorometer (JASCO, Tokyo, Japan) using a cuvette of 0.3-cm path length, and the excitation wavelength was 295 nm. The fluorescence emission intensity of noscapine and its derivatives at this excitation wavelength was negligible. A 0.3-cm path-length cuvette was used to minimize the inner filter effects caused by the absorbance of these agents at higher concentration ranges. In addition, the inner filter effects were corrected using a formula F corrected ═F observed•antilog [(Aex+Aem)/2], where Aex is the absorbance at the excitation wavelength and Aem is the absorbance at the emission wavelength. […]

[4] = test system: CEM/VLB100 (vinblastine-resistant variant); test: Inhibition of cell proliferation; assay type: cell-based, human

## COc1ccc2c(c1OC)C(=O)O[C@@H]2[C@H]1c2c(c(Cl)c3c(c2OC)OCO3)CCN1C [9-Cl-nos, (S)-3-((R)-9-chloro-4-methoxy-6-methyl-5,6,7,8-tetrahydro-[1,3]dioxolo[4,5-g]isoquinolin-5-yl)-6,7-dimethoxyisobenzofuran-1(3H)-one]
[1]
  effect on cell cycle of normal cells: without affecting the cell cycle
MCF-7 cells
  IC50: 1900 ± 300 nM
MDA-MB-231 cells [2]
  IC50: 3.5 ± 0.4 µM
caspase-3
  caspase-3 activation: associated with activation of the key executioner cysteine protease, caspase-3
MDA-MB-231 cells [3]
  nuclear morphology, features of apoptotic cells: condensed chromosomes, numerous fragmented micronuclei, and apoptotic bodies are evident
tubulin
  Kd: 40 ± 8 µM
[4]
  inhibition of cell proliferation (in words): effectively inhibits cell proliferation
